Laboratory results from patent publication US20210038589A1, “USES, COMPOSITIONS AND METHODS” (priority 2018, published 2021).

Experiments:
[1] = system: pyramidal cell action potentials in hippocampal area CA3; assay: Concomitant LFP and single unit recordings: AP firing and spike-phase coupling after Aβ; type: cell-based, mouse; settings: inhibitor applied after the application of Aβ
Experimental: Having studied the synaptic effects of two T-type Ca^2+ channel inhibitors, we then proceeded to examine their ability to modulate the synchronization of hippocampal neuronal activity. We performed concomitant recordings of field potentials and single unit recordings to analyze the synchronization of action potentials with the phase of the gamma oscillations (27). […] To determine the spike phase of PC during a gamma oscillation, spike-phase coupling was calculated. […] This is observed as a slight shift to the right in the AP-phase distribution (7A,D). The desynchronization of PC activity is also evidenced by the reduction of the summation vector length (Pmzd: control: 0.3764±0.048, Aβ: 0.226±0.05, n=7, p=0.0078, FIG. 7B; Penfl: control: 0.3976±0.054, Aβ: 0.2661±0.05566, n=8, p=0.0078, FIG. 7E), which is represented by the change in the length of the arrow in FIGS. 7A and D.
Patch-clamp (whole-cell) recordings were performed from visually identified CA3 PC using The SliceScope (Scientifica, UK). Action Potentials (APs) were recorded from pyramidal cells in area CA3 as single units (submerged chamber) using standard ACSF-containing patch electrodes. For EPSC recordings (Vh=−70 mV) a potassium-based intracellular solution was used (in mM): 122.5 K-gluconate, 17.5 KCl, 4 ATPNa, 0.4 GTPNa, 10 HEPES, 0.2 EGTA, 2 MgCl, set to pH 7.2-7.3 with KOH, osmolarity 270-280 mOsm. For IPSC recordings (Vh=0 mV) a cesium-based intracellular solution was used (in mM): 140 CsMeSO4, 10 HEPES, 0.2 EGTA, 4 MGCl, 2 ATPNa, 0.2 GTPNa, 5 QX-314, set to pH 7.2-7.4 with CsOH, osmolarity 270-280 mOsm.
Spike phase-coupling analysis was performed on concomitant LFP recordings and single unit recordings using MATLAB custom-written routines in order to relate the PC spiking activity to ongoing gamma oscillations (48). To do this LFP recordings were pre-processed using a band pass filter set to 20-60 Hz (highpass: RC-single pole, lowpass: RC-single pole) using Clampfit 10.7. AP were detected using an amplitude threshold and the instantaneous phase of gamma oscillation was calculated using a Hilbert transform in order to determine the phase-angle at which each action potential occurred during ongoing oscillations. Phase-angles and gamma oscillations-phases were represented in polar plots and expressed in radians with the peak of the oscillation cycle corresponding to 0π and the valley corresponding to ±π in the polar plots. In order to search for the synchronization level of AP firing, AP phase-angles frequency-distribution were normalized, a Gaussian function was fitted and the half-width at half-maximum was then calculated as a measure of the synchronization level: the more AP are fired on the same phase-angle the more synchronized the neuronal activity is. The preferred phase-angle was calculated by averaging the AP phase-angles distribution of all the experiments and is represented by an arrow in the polar-plots. To test whether neurons fired in a phase-related manner all concomitant recordings were tested for circular uniformity using Rayleigh's test. Only recording with p values below 0.05 were considered for the analysis.

[2] = system: gamma oscillations in mouse hippocampal slices; assay: Prevention of Aβ-induced degradation of kainate-induced gamma oscillations in hippocampal slices (interface chamber); type: cell-based; settings: for gamma oscillation power: 50 nM Aβ in last 15 min, 100 nM KA; for coefficient of rhythmicity (Cr): acute Aβ
Experimental: Previously we have characterized the effects of acute Aβ on the hippocampal circuitry of WT mice. […] During the last 15 min 50 nM Aβ was added to the incubation solution. […] Control experiments were also performed by incubating slice just with ACSF for 1 h (with Aβ present for the last 15 min) or incubating just with ACSF for 1 h. […] Pmzd 10 μM: 9.95±1.82×10^-9V^2, n=10, p<0.0001 vs Aβ, FIGS. 4A,B,C,F, light and dark green, respectively). […] Horizontal sections (350 μm thick) of the ventral hippocampi of both hemispheres were prepared with a Leica VT1200S vibratome (Leica Microsystems). Immediately after cutting, slices were transferred into a humidified interface holding chamber containing standard ACSF (in mM): 124 NaCl, 30 NaHCO3, 10 glucose, 1.25 NaH2PO4, 3.5 KCl, 1.5 MgCl2, 1.5 CaCl2, continuously supplied with humidified carbogen. The chamber was held at 34° C. during slicing and subsequently allowed to cool down to room temperature ( 22° C.) for a minimum of 1 hour. Recordings were carried out in hippocampal area CA3 with borosilicate glass microelectrodes, pulled to a resistance of 3-7 MΩ. Local field potential (LFP) were recorded using microelectrodes filled with ACSF placed in CA3 stratum pyramidale. LFP oscillations were elicited by applying kainic acid (100 nM) to the extracellular bath, Interface chamber LFP recordings were performed with a 4-channel […] amplifier (University of Cologne, Germany). Submerged chamber LFP recordings and patch-clamp recordings were performed using a Multiclamp 700B (Molecular Devices, CA, USA). In order to maintain stable LFP oscillations all recordings were performed at 34° C. with a perfusion rate of 3-5 ml per minute of aerated ACSF containing 100 nM Kainate. The oscillations were allowed to stabilize for at least 20 minutes before any recordings were performed. Power spectra density plots (from 60 s long LFP recordings) were calculated in averaged Fourier-segments of 8192 points using Axograph X (Kagi, Berkeley, Calif., USA). […] Coefficient of rhythmicity (Cr) was calculated in order to assess the rhythmicity of gamma oscillations (26, 27) and was defined as Cr=(α-β)/(α+β) were α corresponds to the value of the height of the second peak and β to the first valley in the normalized autocorrelogram. […] Only recordings having Cr≥0.01 were considered rhythmic.

SMILES | AP count (AP firing frequency) [1] | preferred phase angle [1] | summation vector length [1] | gamma oscillation power ([2]; 1 h incubation with 5 μM compound) | coefficient of rhythmicity (Cr) ([2]; slices incubated with 5 μM compound) | gamma oscillation power ([2]; 1 h incubation with 1 μM compound) | gamma oscillation power ([2]; 1 h incubation with 10 μM compound) | coefficient of rhythmicity (Cr) ([2]; slices incubated with 1 μM compound) | coefficient of rhythmicity (Cr) ([2]; slices incubated with 10 μM compound)
OC1(c2ccc(Cl)c(C(F)(F)F)c2)CCN(CCCC(c2ccc(F)cc2)c2ccc(F)cc2)CC1 [Penfluridol] | 1.79±0.43 Hz | 4.09±0.2 radians | 0.355±0.05 | 6.41±1.68 ×10^−9V^2 | 0.51±0.02 | – | – | – | –
O=c1[nH]c2ccccc2n1C1CCN(CCCC(c2ccc(F)cc2)c2ccc(F)cc2)CC1 [Pimozide] | 2.23±0.51 Hz | 4.180±0.15 radians | 0.335±0.072 | – | – | 4.22±0.59 ×10^−9V^2 | 9.95±1.82 ×10^−9V^2 | 0.47±0.016 | 0.5±0.02
